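96-well plates; 48 h exposure; 5 concentrations. Endpoints by linear interpolation between flanking doses. Not reached: highest tested concentration assigned. At the GI50, growth is halved. TGI: total growth inhibition.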
Legend:
Assay in all cases: NCI tumour cell line growth inhibition, 48 h
COLO 205 colon = system: COLO 205 colon
RXF 393 renal = system: RXF 393 renal
NCI-H460 lung = system: NCI-H460 lung
SN12C renal = system: SN12C renal
OVCAR-3 ovarian = system: OVCAR-3 ovarian
KM12 colon = system: KM12 colon
HL-60(TB) leukemia = system: HL-60(TB) leukemia
CCRF-CEM leukemia = system: CCRF-CEM leukemia
T-47D breast = system: T-47D breast
MDA-MB-231 breast = system: MDA-MB-231 breast

SMILES | TGI (COLO 205 colon) | TGI (RXF 393 renal) | TGI (NCI-H460 lung) | TGI (SN12C renal) | TGI (OVCAR-3 ovarian) | TGI (KM12 colon) | TGI (HL-60(TB) leukemia) | TGI (CCRF-CEM leukemia) | GI50 (COLO 205 colon) | GI50 (RXF 393 renal) | GI50 (CCRF-CEM leukemia) | GI50 (T-47D breast) | TGI (T-47D breast) | GI50 (SN12C renal) | GI50 (OVCAR-3 ovarian) | GI50 (KM12 colon) | GI50 (HL-60(TB) leukemia) | GI50 (MDA-MB-231 breast) | TGI (MDA-MB-231 breast) | GI50 (NCI-H460 lung)
Cc1cc(NS(=O)(=O)c2ccc(NC(=O)c3cccc4c(Nc5ccc(S(=O)(=O)N=C(N)N)cc5)c5ccccc5nc34)cc2)no1 | > 100 µM | > 100 µM | > 100 µM | > 100 µM | > 100 µM | > 100 µM | > 100 µM |  |  |  |  |  |  |  |  |  |  |  |  | 
Fc1ccc(C2SCc3nc4ccccc4n32)cc1 (stereo not drawn) | > 100 µM | 70.7 µM | > 100 µM | > 100 µM | 77.6 µM | > 100 µM | 71.8 µM | > 100 µM |  |  |  |  |  |  |  |  |  |  |  | 
COc1ccc(-c2ccc(-c3ccc(-c4ccc(C(=N)N)cc4)s3)s2)cc1OC | 4.57 µM | 34.6 µM |  | 21.8 µM | 1.47 µM | 2.16 µM | 28.1 µM | 6.4 µM | 1.37 µM | 11.2 µM | 2.24 µM | 3.09 µM | 31.8 µM | 3.6 µM | 0.369 µM | 0.749 µM | 7.47 µM |  |  | 
O=C(OCC1CO1)c1cccs1 (stereo not drawn) | > 100 µM | > 100 µM | > 100 µM | > 100 µM | > 100 µM | > 100 µM | > 100 µM | > 100 µM |  |  |  |  |  |  |  |  |  |  |  | 
CO[C@@H]1CC(=O)C2(CC(=O)O[C@@H]2/C=C(\C)CCC=C(C)C)C[C@@H]1O (stereo partly drawn) | 2.11 µM | 2.92 µM |  | 1.64 µM | 2.28 µM | 3.97 µM | 2.32 µM |  | 1.07 µM | 0.818 µM |  | 0.522 µM | 1.26 µM | 0.705 µM | 0.839 µM | 1.03 µM | 0.409 µM | 0.642 µM | 1.66 µM | 0.744 µM
Nc1c(C(=O)Nc2ccccc2)[n+]([O-])c2ccccc2[n+]1[O-] | 29.3 µM |  | 35.7 µM | 31.4 µM | 31.7 µM | 30.4 µM | 90.8 µM | > 100 µM |  |  |  |  |  |  |  |  |  |  |  | 
C=C1C(=O)O[C@H]2[C@H]1CC/C(COC(=O)NCCc1c[nH]c3ccc(OC)cc13)=C\CC[C@@]1(C)O[C@@H]21 | 2.78 µM | 2.92 µM | 25.2 µM | 3.8 µM | 3.92 µM | 23.2 µM |  | 4.36 µM | 1.3 µM | 1.46 µM | 0.64 µM | 1.81 µM | 4.53 µM | 1.81 µM | 1.44 µM | 6.49 µM |  | 1.97 µM | 4.44 µM | 6.49 µM
COc1cc2c(cc1O)CC13CCC(=O)N1CCc1cc(OC)c(O)c-2c13 (stereo not drawn) | > 68.1 µM | > 68.1 µM | > 68.1 µM | > 68.1 µM | > 68.1 µM |  | > 68.1 µM | > 68.1 µM |  |  |  |  |  |  |  |  |  |  |  | 
CCN(CCCl)CCCNc1c2ccccc2nc2ccc(OC)cc12 | 1.12 µM |  |  |  |  |  |  |  |  | 601 µM | 67.6 µM |  |  | 274 µM | 119 µM | 268 µM | 175 µM |  |  | 129 µM
CC(=O)OC1(C)C(=O)OC1(C)C(C)=O (stereo not drawn) | > 100 µM | > 100 µM |  | > 100 µM | > 100 µM | > 100 µM | > 100 µM | > 100 µM |  |  |  |  |  |  |  |  |  |  |  | 
